From patent EP4635500A1, “THERAPEUTIC AGENT FOR BACTERIAL INFECTION” (Sumitomo Pharma Co., Ltd., priority 2022, dated 2024)
Where two headings read alike, the source gives them in different places.

Legend:
A. baumannii = assay: MIC, broth microdilution, CDC/FDA Antibiotic Resistance Isolate Bank (Example 7, Tables 9, 13, 14); format: cell-based, Acinetobacter baumannii; conditions: for MIC: read-out: MIC
P. aeruginosa = assay: MIC, broth microdilution, CDC/FDA Antibiotic Resistance Isolate Bank (Example 7, Tables 10, 15); format: cell-based; conditions: for MIC: Pseudomonas aeruginosa, read-out: MIC
[1] = MIC distribution, metallo-β-lactamase-producing A. baumannii, inhibitor µg/mL in parentheses
[2] = 26 metallo-carbapenemase-producing P. aeruginosa strains, β-lactamase inhibitor µg/mL in parentheses
[3] = 96 strains of P. aeruginosa, β-lactamase inhibitor µg/mL in parentheses

C[C@H]1COc2c(N3CCN(C)CC3)c(F)cc3c(=O)c(C(=O)O)cn1c23 [Levofloxacin, levofloxacin]
0.016 µg/mL: MIC (P. aeruginosa; P. aeruginosa KUB No. 5834, AR Bank # 529)
32 µg/mL: MIC (A. baumannii; Acinetobacter baumannii, KUB No. 5727, AR Bank #294) | MIC (A. baumannii; Acinetobacter baumannii, KUB No. 5729, AR Bank #296) | MIC (A. baumannii; Acinetobacter baumannii, KUB No. 5730, AR Bank #297) | MIC (A. baumannii; Acinetobacter baumannii, KUB No. 5739, AR Bank #306) | MIC (A. baumannii; Acinetobacter baumannii, KUB No. 5743, AR Bank #310) | MIC80 (A. baumannii; Acinetobacter baumannii, 55 isolates of A. baumannii, read-out: MIC80) | MIC (P. aeruginosa; P. aeruginosa KUB No. 5561, AR Bank # 64) | MIC (P. aeruginosa; P. aeruginosa KUB No. 5587, AR Bank # 90) | MIC (P. aeruginosa; P. aeruginosa KUB No. 5592, AR Bank # 95) | MIC (P. aeruginosa; P. aeruginosa KUB No. 5607, AR Bank # 110) | MIC (P. aeruginosa; P. aeruginosa KUB No. 5608, AR Bank # 111) | MIC (P. aeruginosa; P. aeruginosa KUB No. 5663, AR Bank # 230) | MIC (P. aeruginosa; P. aeruginosa KUB No. 5674, AR Bank # 241) | MIC (P. aeruginosa; P. aeruginosa KUB No. 5679, AR Bank # 246) | MIC (P. aeruginosa; P. aeruginosa KUB No. 5688, AR Bank # 255) | MIC (P. aeruginosa; P. aeruginosa KUB No. 5693, AR Bank # 260) | MIC (P. aeruginosa; P. aeruginosa KUB No. 5697, AR Bank # 264) | MIC (P. aeruginosa; P. aeruginosa KUB No. 5699, AR Bank # 266) | MIC (P. aeruginosa; P. aeruginosa KUB No. 5700, AR Bank # 267) | MIC (P. aeruginosa; P. aeruginosa KUB No. 5702, AR Bank # 269) | MIC (P. aeruginosa; P. aeruginosa KUB No. 5703, AR Bank # 270) | MIC (P. aeruginosa; P. aeruginosa KUB No. 5704, AR Bank # 271) | MIC (P. aeruginosa; P. aeruginosa KUB No. 5748, AR Bank # 352) | MIC (P. aeruginosa; P. aeruginosa KUB No. 5749, AR Bank # 353) | MIC (P. aeruginosa; P. aeruginosa KUB No. 5751, AR Bank # 355) | MIC (P. aeruginosa; P. aeruginosa KUB No. 5753, AR Bank # 357) | MIC (P. aeruginosa; P. aeruginosa KUB No. 5785, AR Bank # 439) | MIC (P. aeruginosa; P. aeruginosa KUB No. 5786, AR Bank # 440) | MIC (P. aeruginosa; P. aeruginosa KUB No. 5789, AR Bank # 444) | MIC (P. aeruginosa; P. aeruginosa KUB No. 5790, AR Bank # 445) | MIC (P. aeruginosa; P. aeruginosa KUB No. 5793, AR Bank # 449)
64 µg(mL): MIC against 96 strains of P. aeruginosa MIC90 (P. aeruginosa; [3])
1: Number of isolates at MIC 16 µg/mL (A. baumannii; [1])
8 µg/mL: MIC (A. baumannii; Acinetobacter baumannii, KUB No. 5719, AR Bank #286) | MIC (A. baumannii; Acinetobacter baumannii, KUB No. 5723, AR Bank #290) | MIC (A. baumannii; Acinetobacter baumannii, KUB No. 5724, AR Bank #291) | MIC (A. baumannii; Acinetobacter baumannii, KUB No. 5731, AR Bank #298) | MIC (A. baumannii; Acinetobacter baumannii, KUB No. 5746, AR Bank #313) | MIC (P. aeruginosa; P. aeruginosa KUB No. 5665, AR Bank # 232) | MIC (P. aeruginosa; P. aeruginosa KUB No. 5667, AR Bank # 234) | MIC (P. aeruginosa; P. aeruginosa KUB No. 5684, AR Bank # 251) | MIC (P. aeruginosa; P. aeruginosa KUB No. 5701, AR Bank # 268) | MIC (P. aeruginosa; P. aeruginosa KUB No. 5705, AR Bank # 272) | MIC (P. aeruginosa; P. aeruginosa KUB No. 5747, AR Bank # 351) | MIC (P. aeruginosa; P. aeruginosa KUB No. 5750, AR Bank # 354) | MIC (P. aeruginosa; P. aeruginosa KUB No. 5754, AR Bank # 358) | MIC (P. aeruginosa; P. aeruginosa KUB No. 5755, AR Bank # 359) | MIC (P. aeruginosa; P. aeruginosa KUB No. 5802, AR Bank # 459)
>64 µg(mL): MIC against 26 metallo-carbapenemase-producing strains MIC90 (P. aeruginosa; [2])
0.001 µg/mL: MIC (P. aeruginosa; P. aeruginosa KUB No. 5816, AR Bank # 511) | MIC (P. aeruginosa; P. aeruginosa KUB No. 5819, AR Bank # 514) | MIC (P. aeruginosa; P. aeruginosa KUB No. 5821, AR Bank # 516)
0.5 µg/mL: MIC (P. aeruginosa; P. aeruginosa KUB No. 579, AR Bank # 447) | MIC (P. aeruginosa; P. aeruginosa KUB No. 5670, AR Bank # 237) | MIC (P. aeruginosa; P. aeruginosa KUB No. 5671, AR Bank # 238) | MIC (P. aeruginosa; P. aeruginosa KUB No. 5689, AR Bank # 256) | MIC (P. aeruginosa; P. aeruginosa KUB No. 5691, AR Bank # 258) | MIC (P. aeruginosa; P. aeruginosa KUB No. 5692, AR Bank # 259) | MIC (P. aeruginosa; P. aeruginosa KUB No. 5752, AR Bank # 356) | MIC (P. aeruginosa; P. aeruginosa KUB No. 5787, AR Bank # 441)
0.008 µg/mL: MIC (P. aeruginosa; P. aeruginosa KUB No. 5813, AR Bank # 508) | MIC (P. aeruginosa; P. aeruginosa KUB No. 5815, AR Bank # 510)
32 µg(mL): MIC against 26 metallo-carbapenemase-producing strains MIC50 (P. aeruginosa; [2]) | MIC against 96 strains of P. aeruginosa MIC50 (P. aeruginosa; [3])
64 µg/mL: MIC (A. baumannii; Acinetobacter baumannii, KUB No. 5732, AR Bank #299) | MIC (A. baumannii; Acinetobacter baumannii, KUB No. 5733, AR Bank #300) | MIC (A. baumannii; Acinetobacter baumannii, KUB No. 5742, AR Bank #309) | MIC90 (A. baumannii; Acinetobacter baumannii, 55 isolates of A. baumannii, read-out: MIC90) | MIC (P. aeruginosa; P. aeruginosa KUB No. 5083, AR Bank # 250) | MIC (P. aeruginosa; P. aeruginosa KUB No. 5551, AR Bank # 54) | MIC (P. aeruginosa; P. aeruginosa KUB No. 5589, AR Bank # 92) | MIC (P. aeruginosa; P. aeruginosa KUB No. 5591, AR Bank # 94) | MIC (P. aeruginosa; P. aeruginosa KUB No. 5600, AR Bank # 103) | MIC (P. aeruginosa; P. aeruginosa KUB No. 5605, AR Bank # 108) | MIC (P. aeruginosa; P. aeruginosa KUB No. 5662, AR Bank # 229) | MIC (P. aeruginosa; P. aeruginosa KUB No. 5664, AR Bank # 231) | MIC (P. aeruginosa; P. aeruginosa KUB No. 5668, AR Bank # 235) | MIC (P. aeruginosa; P. aeruginosa KUB No. 5672, AR Bank # 239) | MIC (P. aeruginosa; P. aeruginosa KUB No. 5677, AR Bank # 244) | MIC (P. aeruginosa; P. aeruginosa KUB No. 5682, AR Bank # 249) | MIC (P. aeruginosa; P. aeruginosa KUB No. 5690, AR Bank # 257) | MIC (P. aeruginosa; P. aeruginosa KUB No. 5698, AR Bank # 265) | MIC (P. aeruginosa; P. aeruginosa KUB No. 5788, AR Bank # 443) | MIC (P. aeruginosa; P. aeruginosa KUB No. 5800, AR Bank # 457) | MIC (P. aeruginosa; P. aeruginosa KUB No. 5805, AR Bank # 863)
> 0.064 µg/mL: MIC (P. aeruginosa; P. aeruginosa KUB No. 5818, AR Bank # 513) | MIC (P. aeruginosa; P. aeruginosa KUB No. 5820, AR Bank # 515)
16 µg/mL: MIC (A. baumannii; Acinetobacter baumannii, KUB No. 5720, AR Bank #287) | MIC (A. baumannii; Acinetobacter baumannii, KUB No. 5722, AR Bank #259) | MIC (A. baumannii; Acinetobacter baumannii, KUB No. 5728, AR Bank #295) | MIC (A. baumannii; Acinetobacter baumannii, KUB No. 5734, AR Bank #301) | MIC (A. baumannii; Acinetobacter baumannii, KUB No. 5736, AR Bank #303) | MIC (A. baumannii; Acinetobacter baumannii, KUB No. 5737, AR Bank #304) | MIC (A. baumannii; Acinetobacter baumannii, KUB No. 5738, AR Bank #305) | MIC (A. baumannii; Acinetobacter baumannii, KUB No. 5740, AR Bank #307) | MIC (A. baumannii; Acinetobacter baumannii, KUB No. 5741, AR Bank #308) | MIC50 (A. baumannii; Acinetobacter baumannii, 55 isolates of A. baumannii, read-out: MIC50) | MIC (P. aeruginosa; P. aeruginosa KUB No. 5669, AR Bank # 236) | MIC (P. aeruginosa; P. aeruginosa KUB No. 5675, AR Bank # 242) | MIC (P. aeruginosa; P. aeruginosa KUB No. 5676, AR Bank # 243) | MIC (P. aeruginosa; P. aeruginosa KUB No. 5681, AR Bank # 248) | MIC (P. aeruginosa; P. aeruginosa KUB No. 5685, AR Bank # 252) | MIC (P. aeruginosa; P. aeruginosa KUB No. 5687, AR Bank # 254)
0.064 µg/mL: MIC (P. aeruginosa; P. aeruginosa KUB No. 5823, AR Bank # 518)
3: Number of isolates at MIC 8 µg/mL (A. baumannii; [1])
> 64 µg/mL: MIC (A. baumannii; Acinetobacter baumannii, KUB No. 5721, AR Bank #288) | MIC (A. baumannii; Acinetobacter baumannii, KUB No. 5735, AR Bank #302) | MIC (P. aeruginosa; P. aeruginosa KUB No. 5597, AR Bank # 100) | MIC (P. aeruginosa; P. aeruginosa KUB No. 5602, AR Bank # 105) | MIC (P. aeruginosa; P. aeruginosa KUB No. 5673, AR Bank # 240) | MIC (P. aeruginosa; P. aeruginosa KUB No. 5678, AR Bank # 245) | MIC (P. aeruginosa; P. aeruginosa KUB No. 5799, AR Bank # 456) | MIC (P. aeruginosa; P. aeruginosa KUB No. 5806, AR Bank # 864)
4 µg/mL: MIC (A. baumannii; Acinetobacter baumannii, KUB No. 5725, AR Bank #292) | MIC (A. baumannii; Acinetobacter baumannii, KUB No. 5726, AR Bank #293) | MIC (A. baumannii; Acinetobacter baumannii, KUB No. 5744, AR Bank #311) | MIC (A. baumannii; Acinetobacter baumannii, KUB No. 5745, AR Bank #312) | MIC (P. aeruginosa; P. aeruginosa KUB No. 5694, AR Bank # 261) | MIC (P. aeruginosa; P. aeruginosa KUB No. 5798, AR Bank # 455) | MIC (P. aeruginosa; P. aeruginosa KUB No. 5804, AR Bank # 862)
1 µg/mL: MIC (P. aeruginosa; P. aeruginosa KUB No. 5680, AR Bank # 247) | MIC (P. aeruginosa; P. aeruginosa KUB No. 5686, AR Bank # 253) | MIC (P. aeruginosa; P. aeruginosa KUB No. 5756, AR Bank # 360)
0.032 µg/mL: MIC (P. aeruginosa; P. aeruginosa KUB No. 5814, AR Bank # 509) | MIC (P. aeruginosa; P. aeruginosa KUB No. 5831, AR Bank # 526) | MIC (P. aeruginosa; P. aeruginosa KUB No. 5832, AR Bank # 527) | MIC (P. aeruginosa; P. aeruginosa KUB No. 5833, AR Bank # 528)
2 µg/mL: MIC (P. aeruginosa; P. aeruginosa KUB No. 5666, AR Bank # 23) | MIC (P. aeruginosa; P. aeruginosa KUB No. 5695, AR Bank # 262) | MIC (P. aeruginosa; P. aeruginosa KUB No. 5696, AR Bank # 263) | MIC (P. aeruginosa; P. aeruginosa KUB No. 5801, AR Bank # 458)
0.004 µg/mL: MIC (P. aeruginosa; P. aeruginosa KUB No. 5817, AR Bank # 512)
